Results from PubChem BioAssay AID256 (DTP/NCI, 2004).
Where “and” joins values, the source holds several entries; their conditions need not be identical. Equal values may be shown once. Toxic doses and inconclusive results are not listed. How the source made its calls: active means survival T/C of 150% or more; inactive means T/C below 125% in these data.

Test system: CD2F1 mice, L1210 leukemia ip, survival T/C
Assay: NCI In Vivo Anticancer Drug Screen. Data for tumor model L1210 Leukemia (intraperitoneal) in CD2F1 (CDF1) mice
Conditions: higher = longer survival
Outline: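 Tumor-bearing mice (transplanted tumor) were split into treated and vehicle control groups, and the measured endpoint of each treated group was divided by that of its vehicle controls.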

[1] = endpoint: mean survival time, dose: 50.0 mg/kg/injection, schedule: Q01DX009 (ip), vehicle: saline with Tween-80
[2] = endpoint: mean survival time, dose: 100.0 mg/kg/injection, schedule: Q01DX009 (ip), vehicle: saline with Tween-80
[3] = endpoint: mean survival time, dose: 200.0 mg/kg/injection, schedule: Q01DX009 (ip), vehicle: saline with Tween-80
[4] = endpoint: mean survival time, dose: 50.0 mg/kg/injection, schedule: Q01DX009 (ip), vehicle: saline
[5] = endpoint: mean survival time, dose: 100.0 mg/kg/injection, schedule: Q01DX009 (ip), vehicle: saline
[6] = endpoint: mean survival time, dose: 100.0 mg/kg/injection, schedule: Q04DX003 (ip), vehicle: saline
[7] = endpoint: mean survival time, dose: 200.0 mg/kg/injection, schedule: Q04DX003 (ip), vehicle: saline
[8] = endpoint: mean survival time, dose: 400.0 mg/kg/injection, schedule: Q04DX003 (ip), vehicle: saline
[9] = endpoint: mean survival time, dose: 50.0 mg/kg/injection, schedule: Q04DX002 (ip), vehicle: saline with Tween-80
[10] = endpoint: mean survival time, dose: 100.0 mg/kg/injection, schedule: Q01DX001 (ip), vehicle: saline with Tween-80
[11] = endpoint: mean survival time, dose: 200.0 mg/kg/injection, schedule: Q01DX001 (ip), vehicle: saline with Tween-80

Measured: T/C

Cc1cccc(OCCOC(=O)Nc2cccc(C(F)(F)F)c2)c1
inactive: endpoint: mean survival time, dose: 90.0 mg/kg/injection, schedule: Q01DX009 (ip), vehicle: acetone 101 % of control | endpoint: mean survival time, dose: 180.0 mg/kg/injection, schedule: Q01DX009 (ip), vehicle: acetone 103 % of control | endpoint: mean survival time, dose: 360.0 mg/kg/injection, schedule: Q01DX009 (ip), vehicle: acetone 101 % of control

CC/C=C(/CC)C1CCCCC1C (configuration not stated)
inactive: [1] 87 % of control | [2] 96 % of control | [3] 96 % of control

Nc1nc2cc[nH]c2c(=O)[nH]1
inactive: endpoint: median survival time, dose: 50.0 mg/kg/injection, schedule: Q01DX005 (ip), vehicle: saline with Tween-80 94 % of control | endpoint: median survival time, dose: 100.0 mg/kg/injection, schedule: Q01DX005 (ip), vehicle: saline with Tween-80 97 % of control | endpoint: median survival time, dose: 200.0 mg/kg/injection, schedule: Q01DX005 (ip), vehicle: saline with Tween-80 92 % of control

Nc1cc(=O)c2cn[nH]c2[nH]1
inactive: endpoint: mean survival time, dose: 12.5 mg/kg/injection, schedule: Q01DX005 (ip), vehicle: other 98 % of control | endpoint: mean survival time, dose: 25.0 mg/kg/injection, schedule: Q01DX005 (ip), vehicle: other 102 % of control | endpoint: mean survival time, dose: 50.0 mg/kg/injection, schedule: Q01DX005 (ip), vehicle: other 102 % of control | endpoint: mean survival time, dose: 100.0 mg/kg/injection, schedule: Q01DX005 (ip), vehicle: other 95 % of control

Cc1cc2ccc(Br)cc2[nH]1
inactive: endpoint: mean survival time, dose: 100.0 mg/kg/injection, schedule: Q01DX001 (ip), vehicle: other 104 % of control | endpoint: mean survival time, dose: 200.0 mg/kg/injection, schedule: Q01DX001 (ip), vehicle: other 101 % of control | endpoint: mean survival time, dose: 400.0 mg/kg/injection, schedule: Q01DX001 (ip), vehicle: other 98 % of control

CCCCCC[Si]
inactive: endpoint: mean survival time, dose: 75.0 mg/kg/injection, schedule: Q01DX009 (ip), vehicle: saline with Tween-80 94 % of control | endpoint: mean survival time, dose: 150.0 mg/kg/injection, schedule: Q01DX009 (ip), vehicle: saline with Tween-80 94 % of control | endpoint: mean survival time, dose: 300.0 mg/kg/injection, schedule: Q01DX009 (ip), vehicle: saline with Tween-80 98 % of control

CC(/C=N/N(C)C)=N/[N+](C)(C)C
inactive: [4] 101 % of control | [5] 101 % of control

CC(C#N)(Nc1ccccc1)c1ccco1 (configuration not stated)
inactive: endpoint: mean survival time, dose: 6.25 mg/kg/injection, schedule: Q01DX009 (ip), vehicle: other 102 % of control | endpoint: mean survival time, dose: 6.25 mg/kg/injection, schedule: Q04DX003 (ip), vehicle: other 94 % of control | endpoint: mean survival time, dose: 12.5 mg/kg/injection, schedule: Q01DX009 (ip), vehicle: other 100 % of control | endpoint: mean survival time, dose: 12.5 mg/kg/injection, schedule: Q04DX003 (ip), vehicle: other 95 % of control | endpoint: mean survival time, dose: 25.0 mg/kg/injection, schedule: Q01DX009 (ip), vehicle: other 94 % of control | endpoint: mean survival time, dose: 25.0 mg/kg/injection, schedule: Q04DX003 (ip), vehicle: other 106 % of control | endpoint: mean survival time, dose: 100.0 mg/kg/injection, schedule: Q01DX009 (ip), vehicle: other 90 % of control | [6] 103 % of control | endpoint: mean survival time, dose: 200.0 mg/kg/injection, schedule: Q01DX009 (ip), vehicle: other 94 % of control | [7] 101 % of control | [8] 94 % of control

Cc1c(N=Nc2ccc(N(C)C)cc2)cc[n+]([O-])c1C
inactive: endpoint: mean survival time, dose: 100.0 mg/kg/injection, schedule: Q04DX003 (ip), vehicle: saline with Tween-80 102 % of control | endpoint: mean survival time, dose: 200.0 mg/kg/injection, schedule: Q04DX003 (ip), vehicle: saline with Tween-80 110 % of control

NCCC(O)C(=O)NC1CC(N)C(OC2OC(CN)C(O)C(O)C2N)C(OC2OC(CO)C(O)C2O)C1O (configuration not stated)
inactive: [9] 100 % of control | endpoint: mean survival time, dose: 50.0 mg/kg/injection, schedule: Q04DX002 (ip), vehicle: saline 98 % of control | endpoint: mean survival time, dose: 100.0 mg/kg/injection, schedule: Q04DX002 (ip), vehicle: saline with Tween-80 100 % of control | endpoint: mean survival time, dose: 100.0 mg/kg/injection, schedule: Q04DX002 (ip), vehicle: saline 98 % of control | endpoint: mean survival time, dose: 200.0 mg/kg/injection, schedule: Q04DX002 (ip), vehicle: saline with Tween-80 96 % of control | endpoint: mean survival time, dose: 200.0 mg/kg/injection, schedule: Q04DX002 (ip), vehicle: saline 95 % of control | endpoint: mean survival time, dose: 400.0 mg/kg/injection, schedule: Q04DX002 (ip), vehicle: saline with Tween-80 96 % of control | endpoint: mean survival time, dose: 400.0 mg/kg/injection, schedule: Q04DX002 (ip), vehicle: saline 98 % of control

Cc1ccc(/C=N/NC(=O)CNC(=O)Nc2cccc(C(F)(F)F)c2)cc1
inactive: [1] 92 % of control | [2] 88 % of control | [3] 92 % of control

CC(C)N=C(N)c1ccc(NC(=O)c2ccc(C(=O)Nc3ccc(C(N)=NC(C)C)cc3)cc2)cc1
inactive: endpoint: mean survival time, dose: 6.25 mg/kg/injection, schedule: Q01DX Z (ip), vehicle: water 93 % of control

CCOP(=O)(OCC)OCC1OC(n2cnc3c(N)ncnc32)C(O)C1O (configuration not stated)
inactive: endpoint: median survival time, dose: 12.5 mg/kg/injection, schedule: Q01DX005 (ip), vehicle: distilled water + Tween-80 96 % of control | endpoint: median survival time, dose: 25.0 mg/kg/injection, schedule: Q01DX005 (ip), vehicle: distilled water + Tween-80 96 % of control | endpoint: median survival time, dose: 50.0 mg/kg/injection, schedule: Q01DX005 (ip), vehicle: distilled water + Tween-80 103 % of control | endpoint: median survival time, dose: 100.0 mg/kg/injection, schedule: Q01DX005 (ip), vehicle: distilled water + Tween-80 102 % of control | endpoint: median survival time, dose: 200.0 mg/kg/injection, schedule: Q01DX005 (ip), vehicle: distilled water + Tween-80 101 % of control

CC12CCC3C(CC=C4CC(OC(=N)N)CCC43C)C1CCC2=O (configuration not stated)
inactive: endpoint: mean survival time, dose: 75.0 mg/kg/injection, schedule: Q01DX001 (ip), vehicle: saline 98 % of control | endpoint: mean survival time, dose: 150.0 mg/kg/injection, schedule: Q01DX001 (ip), vehicle: saline 101 % of control

COc1ccccc1OCCN1Cc2ccccc2C1
inactive: [1] 94 % of control | [2] 100 % of control | [3] 97 % of control

OCNC(=S)c1c(Cl)cccc1Cl
inactive: [2] 98 % of control | [3] 102 % of control

CC(C)CC(C)OP(=S)(S)OC(C)CC(C)C.[Cd] (configuration not stated)
inactive: endpoint: mean survival time, dose: 6.25 mg/kg/injection, schedule: Q04DX002 (ip), vehicle: saline 93 % of control | endpoint: mean survival time, dose: 12.5 mg/kg/injection, schedule: Q04DX002 (ip), vehicle: saline 104 % of control | endpoint: mean survival time, dose: 25.0 mg/kg/injection, schedule: Q04DX002 (ip), vehicle: saline with Tween-80 100 % of control | endpoint: mean survival time, dose: 25.0 mg/kg/injection, schedule: Q04DX002 (ip), vehicle: saline 93 % of control | [9] 88 % of control

CC(C)(C)c1cc(C=C(C#N)C#N)cc(C(C)(C)C)c1O
inactive: endpoint: mean survival time, dose: 100.0 mg/kg/injection, schedule: Q01DX001 (ip), vehicle: Klucel (hydroxypropylcellulose) (HPC) 87 % of control | endpoint: mean survival time, dose: 200.0 mg/kg/injection, schedule: Q01DX001 (ip), vehicle: Klucel (hydroxypropylcellulose) (HPC) 102 % of control | endpoint: mean survival time, dose: 400.0 mg/kg/injection, schedule: Q01DX001 (ip), vehicle: Klucel (hydroxypropylcellulose) (HPC) 87 % of control

Nc1nc(N)c(CCCCc2ccc(NC(=O)c3cccc(S(=O)(=O)F)c3)cc2)c(N)n1
inactive: endpoint: mean survival time, dose: 50.0 mg/kg/injection, schedule: Q01DX001 (ip), vehicle: saline with Tween-80 96 % of control | [10] 107 % of control | [11] 100 % of control

Cc1cc(-c2ccc(N=Nc3c(N)ccc4cc(S(=O)(=O)O)ccc34)c(C)c2)ccc1N=Nc1c(N)ccc2cc(S(=O)(=O)O)ccc12
inactive: [4] 101 % of control | [5] 101 % of control

Cc1cc(C)c(COCc2cc(C)c(C)cc2C)cc1C
inactive: endpoint: mean survival time, dose: 25.0 mg/kg/injection, schedule: Q01DX009 (ip), vehicle: water 97 % of control | endpoint: mean survival time, dose: 50.0 mg/kg/injection, schedule: Q01DX009 (ip), vehicle: water 86 % of control | endpoint: mean survival time, dose: 100.0 mg/kg/injection, schedule: Q01DX009 (ip), vehicle: water 92 % of control | endpoint: mean survival time, dose: 200.0 mg/kg/injection, schedule: Q01DX009 (ip), vehicle: water 101 % of control | endpoint: mean survival time, dose: 400.0 mg/kg/injection, schedule: Q01DX009 (ip), vehicle: water 103 % of control

O=C1C2CCN(CC2)C1COc1cccc2ccccc12 (configuration not stated)
inactive: [10] 106 % of control | [11] 95 % of control | endpoint: mean survival time, dose: 400.0 mg/kg/injection, schedule: Q01DX001 (ip), vehicle: saline with Tween-80 102 % of control

Nc1ccc2c(c1)C(=O)c1ccccc1C2=O
inactive: endpoint: mean survival time, dose: 25.0 mg/kg/injection, schedule: Q01DX009 (ip), vehicle: saline with Tween-80 98 % of control | [1] 98 % of control | [2] 101 % of control and 102 % of control | [3] 102 % of control | endpoint: mean survival time, dose: 400.0 mg/kg/injection, schedule: Q01DX009 (ip), vehicle: saline with Tween-80 96 % of control

COc1ccc(C(=O)CCC(=O)O)c(C)c1
inactive: [6] 96 % of control | [7] 94 % of control | [8] 92 % of control
